Experimental findings from EPA's ToxValDB 9.5 are described below.

Values joined by “and” are separate entries in the source; they are usually repeats but may differ in a detail not shown here. Equal values may be shown once.

Data set [1] deals with Rattus norvegicus. The settings on record: oral; for NOAEL: M/F.
Data set [2] concerns Canidae. The conditions noted are these: chronic, oral, diet, Dog Other.
Data set [3] concerns Rattus norvegicus. The conditions noted are these: oral.
The subject of data set [4] is Rattus norvegicus. The settings on record: oral, M/F.
The test system of data set [5] is Rattus norvegicus. The conditions noted are these: Hershberger, oral, gavage.
Where [6] appears, read: duration: 2 years, M/F, abnormal pigments in blood.
[7] abbreviates: duration: 2 years, M/F, testicular degeneration.
[8] abbreviates: duration: 6 months, M/F, increased serum alkaline phosphatase levels and increased liver-to-brain weight ratio.
Where [9] appears, read: duration: 10 days, Sprague-Dawley, active + Negative + Antiandrogenic + anti-androgenic + significant decrease in serum testosterone at 800 (49% decrease at 400 NS) / ….
[10] abbreviates: developmental, duration: 2 years, diet, reduced body weight gain, reduced pup weight and parental food consumption.
The mark [11] stands for this setting: developmental, reduced pup weight and parental food consumption.
Where [12] appears, read: duration: 1 years, M/F, gastric mucosal irritation.
[13] abbreviates: duration: 1 years, F, anemia (males).
[14] abbreviates: duration: 1 years, M, anemia (males).
The mark [15] stands for this setting: subchronic, reduced body weight.
The mark [16] stands for this setting: subchronic, reduced rbc and plasma cholinesterase activity.
The mark [17] stands for this setting: duration: 1 years, M, increased serum bilirubin and aspartate aminotransferase, increased urinary volume.
[18] abbreviates: subchronic, duration: 90 days, reduced body weight and neurotoxicity.

On to `CN(C)C(=O)Nc1ccc(Cl)c(Cl)c1` [Diuron], for which the NOEL in data set [1] (subchronic, gavage, M, Sprague-Dawley, Body Weight Changes: decrease + Hematology: RBC decrease, Hgb decrease, Hct decrease, MCHC decrease, MCV increase, Ret increase + Blood …) amounted to 20 mg/kg-day. Moreover, in data set [2] (setting [6]), the LEL worked out at 3.12 mg/kg-day and the NOEL stood at 0.625 mg/kg-day.
For `CCOP(=O)=O.CCOP(=O)=O.CCOP(=O)=O.[Al+3]` [Fosetyl aluminum], the NOEL in data set [2] (duration: 2 years, testicular degeneration) was 250 mg/kg-day. In data set [2] (setting [7]), the LEL stood at 400 mg/kg-day and the NOEL worked out at 250 mg/kg-day.
One may read the LOAEL as the lowest tested level that showed an adverse finding. In data set [3] (chronic, duration: 28 months, diet, Kidney: Altered function), `O=c1ccc(=O)[nH][nH]1` [Maleic hydrazide] displayed an LOAEL of 500 mg/kg-day. The LEL in data set [4] (chronic, duration: 2 years, diet, renal dysfunction) stood at 500 mg/kg-day.
As for `COCC(=O)N(c1c(C)cccc1C)C(C)C(=O)OC` (centres undefined) [Metalaxyl], the NOEL in data set [5] (duration: 10 days, Sprague-Dawley, inactive + Negative + Negative + neither + negative) amounted to 350 mg/kg-day. Moreover, in data set [2] (setting [8]), the LEL came to 25 mg/kg-day and the NOEL amounted to 6.25 mg/kg-day.
The NOAEL is the highest tested level that showed no adverse finding. With `CCc1cccc(C)c1N(C(=O)CCl)C(C)COC` (centres undefined) [Metolachlor], the no observed adverse effect level (NOAEL) in data set [3] (chronic, duration: 2 years, diet, Whole body: Decreased weight gain) turned out to be 23.4 mg/kg-day. In addition, in data set [5] (setting [9]), the LOEL is 800 mg/kg-day and 500 mg/kg-day; the NOEL is 400 mg/kg-day and 300 mg/kg-day. Also, in data set [4] (setting [10]), the LEL turned out to be 150 mg/kg-day and the NOEL stood at 15 mg/kg-day. Also, in data set [4] (setting [11]), the LEL is 50 mg/kg-day and the NOEL came to 15 mg/kg-day.
In the case of `CCCC1COC(Cn2cncn2)(c2ccc(Cl)cc2Cl)O1` (centres undefined) [Propiconazole], the NOEL in data set [5] (duration: 7 days, Wistar, Neither + effect on AGD in 2500mg/kg at birth / significant increase in testis wt at PND 50 in 500 and 2500 mg/kg but not at PND 92 or …) is 2500 mg/kg-day; in data set [2] (setting [12]), 1.25 mg/kg-day. The LEL in data set [2] (setting [12]) came out at 6.25 mg/kg-day.
Turning to `CCC/C(=N\OCC)C1=C(O)CC(CC(C)SCC)CC1=O` (centres undefined) [Sethoxydim], in data set [2] (setting [13]), the LEL stood at 19.9 mg/kg-day and the NOEL came to 9.41 mg/kg-day. In data set [2] (setting [14]), this compound showed an LEL of 17.5 mg/kg-day and an NOEL of 8.86 mg/kg-day.
Regarding `CCN(CC)C(=S)[S-].[Na+]` [Sodium diethyldithiocarbamate], the NOEL in data set [3] (subchronic, duration: 90 days, Eye: Cataracts + Whole body: Decreased weight) came out at 30 mg/kg-day; in data set [4] (setting [15]), 30 mg/kg-day. For the same compound, the LOAEL came to 62.5 mg/kg-day in data set [4] (chronic, Reduced body weight and cataracts in females); 100 mg/kg-day in data set [4] (setting [15]).
As to `CCOP(=S)(OCC)OP(=S)(OCC)OCC` [Sulfotepp], the NOEL in data set [3] (subchronic, duration: 3 months, diet, Blood: Decreased cholinesterase activity + Erythrocytes: Decreased cholinesterase activity) was found to be 0.5 mg/kg-day. Moreover, in data set [4] (setting [16]), the LEL was determined as 1 mg/kg-day and the NOEL was 0.5 mg/kg-day.
As for `COC(=O)c1ccccc1S(=O)(=O)NC(=O)N(C)c1nc(C)nc(OC)n1` [Tribenuron-methyl], in data set [2] (setting [17]), the LEL was 8.16 mg/kg-day and the NOEL turned out to be 0.79 mg/kg-day.
Take `Cc1cccc(O)c1` [m-Cresol]: the no observed adverse effect level (NOAEL) in data set [3] (subchronic, duration: 90 days, gavage, Nervous system: Neurotoxicity + Whole body: Decreased weight gain) was 50 mg/kg-day; in data set [1] (short-term, duration: 28 days, diet, Fischer 344, Body Weight Changes: Mean body weight decrease, Body weight gain decrease + Food Consumption: decrease + Absolute Organ Weight: Brain …), 3000 ppm; in data set [1] (subchronic, duration: 13 weeks, gavage, Sprague-Dawley, Deaths + Clinical Observation: Lethargy Tremors Hunched posture Rough hair coats + Body Weight Changes: Mean body weight decrease, Body …), 50 mg/kg-day; in data set [4] (setting [18]), 50 mg/kg-day. This compound came in with an LOAEL in data set [4] (setting [18]) of 150 mg/kg-day.
